In patent publication US10052331B2, “3-(3H-imidazo[4,5-C]pyridin-2-yl)-1H-pyrazolo[3,4-C]pyridine and therapeutic uses thereof” (Samumed, LLC, priority 2014, dated 2018):
pIC50: −log10 of the molar value.

tested on: Wnt activity (Wnt-responsive Sp5 promoter-luciferase reporter in SW480 cells); test: Wnt activity screening assay: Sp5-Luc reporter gene in SW480 colon carcinoma cells; assay type: cell-based; settings: Homo sapiens
Description: The screening assay for Wnt activity is described as follows. Reporter cell lines can be generated by stably transducing cancer cell lines (e.g., colon cancer) or primary cells (e.g., IEC-6 intestinal cells) with a lentiviral construct that includes a Wnt-responsive promoter driving expression of the firefly luciferase gene.
SW480 colon carcinoma cells were transduced with a lentiviral vector expressing luciferase with a human Sp5 promoter consisting of a sequence of eight TCF/LEF binding sites. SW480 cells stably expressing the Sp5-Luc reporter gene and a hygromycin resistance gene were selected by treatment with 150 μg/ml of hygromycin for 7 days. These stably transduced SW480 cells were expanded in cell culture and used for all further screening activities. For Sp5-Luc reporter gene assays, the cells were plated at 10,000 cells/well in 96-well plates with growth medium containing 10% fetal calf serum and incubated overnight at 37° C. and 5% CO2. Each compound was dissolved in DMSO as a 10 mM stock in standard j-vials and used to prepare compound source plates in dose-response format with 3-fold serial dilutions and a 10 mM top concentration. Compound transfer from serially diluted source plates to assay plates containing the cells was accomplished using a pintool (Multimek 96, Beckman equipped with V&P Scientific FP1S50H pins) based liquid handling protocol. This protocol used a slotted pin to transfer 50 nl of compound from a source plate well to an assay plate well containing 50 μl of cells in growth medium. […] Control wells received 50 nl of DMSO treatment for normalization and calculating IC50 values. The treated cells were incubated at 37° C. and 5% CO2 for an additional forty-two hours. Following incubation, the growth medium was removed and 50 μl of BrightGlo luminescence reagent (Promega) was added to each well of the 96-well assay plates. The plates were placed on an orbital shaker for 5 min and then luminescence was quantified on the Victor3 (Perkin Elmer) plate reader. Readings were normalized to DMSO only treated cells, and normalized activities were utilized for IC50 calculations using the dose-response log (inhibitor) vs. response-variable slope (four parameters) nonlinear regression feature available in GraphPad Prism 5.0 or 6.0.

**Q.** `CCC(=O)Nc1cncc(-c2cc3c(-c4nc5c(-c6cccc(F)c6)cncc5[nH]4)n[nH]c3cn2)c1` [Compound 1, N-(5-(3-(7-(3-Fluorophenyl)-3H-imidazo[4,5-c]pyridin-2-yl)-1H-pyrazolo[3,4-c]pyridin-5-yl)pyridin-3-yl)propionamide] was tested. Which pIC50 did it give?
**A.** 7.21

**Q.** How did the pIC50 turn out when `CC(C)CC(=O)Nc1cncc(-c2cc3c(-c4nc5c(-c6cccc(F)c6)cncc5[nH]4)n[nH]c3cn2)c1` [Compound 2, N-(5-(3-(7-(3-Fluorophenyl)-3H-imidazo[4,5-c]pyridin-2-yl)-1H-pyrazolo[3,4-c]pyridin-5-yl)pyridin-3-yl)-3-methylbutanamide] was run?
**A.** 6.92

**Q.** `CCCC(=O)Nc1cncc(-c2cc3c(-c4nc5c(-c6cccc(F)c6)cncc5[nH]4)n[nH]c3cn2)c1` [Compound 17, N-(5-(3-(7-(3-Fluorophenyl)-3H-imidazo[4,5-c]pyridin-2-yl)-1H-pyrazolo[3,4-c]pyridin-5-yl)pyridin-3-yl)butyramide] was tested. Which pIC50 did it give?
**A.** 7.77

**Q.** `O=C(Nc1cncc(-c2cc3c(-c4nc5c(-c6cccc(F)c6)cncc5[nH]4)n[nH]c3cn2)c1)C1CC1` [Compound 19, N-(5-(3-(7-(3-Fluorophenyl)-3H-imidazo[4,5-c]pyridin-2-yl)-1H-pyrazolo[3,4-c]pyridin-5-yl)pyridin-3-yl)cyclopropanecarboxamide] was tested. Which pIC50 did it give?
**A.** 7.67

**Q.** `CC(C)CC(=O)Nc1cncc(-c2cc3c(-c4nc5c(-c6ccc(F)cc6)cncc5[nH]4)n[nH]c3cn2)c1` [Compound 28, N-(5-(3-(7-(4-Fluorophenyl)-3H-imidazo[4,5-c]pyridin-2-yl)-1H-pyrazolo[3,4-c]pyridin-5-yl)pyridin-3-yl)-3-methylbutanamide] was tested. Which pIC50 did it give?
**A.** 6.77

**Q.** With `CC(C)(C)C(=O)Nc1cncc(-c2cc3c(-c4nc5c(-c6ccc(F)cc6)cncc5[nH]4)n[nH]c3cn2)c1` [Compound 34, N-(5-(3-(7-(4-Fluorophenyl)-3H-imidazo[4,5-c]pyridin-2-yl)-1H-pyrazolo[3,4-c]pyridin-5-yl)pyridin-3-yl)pivalamide] as the molecule, how does the pIC50 read?
**A.** 6.76

**Q.** How did the pIC50 turn out when `O=C(Nc1cncc(-c2cc3c(-c4nc5c(-c6ccc(F)cc6)cncc5[nH]4)n[nH]c3cn2)c1)C1CCC1` [Compound 46, N-(5-(3-(7-(4-Fluorophenyl)-3H-imidazo[4,5-c]pyridin-2-yl)-1H-pyrazolo[3,4-c]pyridin-5-yl)pyridin-3-yl)cyclobutanecarboxamide] was run?
**A.** 6.78

**Q.** How did the pIC50 turn out when `CC(C)C(=O)Nc1cncc(-c2cc3c(-c4nc5c(-c6ccccc6F)cncc5[nH]4)n[nH]c3cn2)c1` [Compound 61, N-(5-(3-(7-(2-Fluorophenyl)-3H-imidazo[4,5-c]pyridin-2-yl)-1H-pyrazolo[3,4-c]pyridin-5-yl)pyridin-3-yl)isobutyramide] was run?
**A.** 6.91

**Q.** `CC(C)(C)CC(=O)Nc1cncc(-c2cc3c(-c4nc5c(-c6ccccc6F)cncc5[nH]4)n[nH]c3cn2)c1` [Compound 68, N-(5-(3-(7-(2-Fluorophenyl)-3H-imidazo[4,5-c]pyridin-2-yl)-1H-pyrazolo[3,4-c]pyridin-5-yl)pyridin-3-yl)-3,3-dimethylbutanamide] was tested. Which pIC50 did it give?
**A.** 6.78

**Q.** `CCCCC(=O)Nc1cncc(-c2cc3c(-c4nc5c(-c6ccccc6F)cncc5[nH]4)n[nH]c3cn2)c1` [Compound 70, N-(5-(3-(7-(2-Fluorophenyl)-3H-imidazo[4,5-c]pyridin-2-yl)-1H-pyrazolo[3,4-c]pyridin-5-yl)pyridin-3-yl)pentanamide] was tested. Which pIC50 did it give?
**A.** 6.90

**Q.** `CC(C)C(=O)Nc1cncc(-c2cc3c(-c4nc5c(-c6cccnc6)cncc5[nH]4)n[nH]c3cn2)c1` [Compound 87, N-(5-(3-(7-(Pyridin-3-yl)-3H-imidazo[4,5-c]pyridin-2-yl)-1H-pyrazolo[3,4-c]pyridin-5-yl)pyridin-3-yl)isobutyramide] was tested. Which pIC50 did it give?
**A.** < 5.00

**Q.** `CC(C)Nc1cncc(-c2cc3c(-c4nc5c(-c6cccnc6)cncc5[nH]4)n[nH]c3cn2)c1` [Compound 90, N-Isopropyl-5-(3-(7-(pyridin-3-yl)-3H-imidazo[4,5-c]pyridin-2-yl)-1H-pyrazolo[3,4-c]pyridin-5-yl)pyridin-3-amine] was tested. Which pIC50 did it give?
**A.** 7.03
